Here are results for 14 compounds from ChEMBL document CHEMBL3616386, “3-Propionyl-thiazolidine-4-carboxylic acid ethyl esters: a family of antiproliferative thiazolidines” (Medchemcomm, 2015).

Bounds are passed on as bounds.

One may read the IC50 as the point on the concentration scale where inhibition reaches its midpoint.

Experiment [1] can be described thus: Cytotoxicity against human HuH7 cells assessed as inhibition of cell proliferation by sulforhodamine B assay. The format is functional, cell-based. The conditions noted are these: Huh-7. Background: The SRB assay estimates cell density from bound dye.
Experiment [2] in a line: Cytotoxicity against human MV cells assessed as inhibition of cell proliferation by sulforhodamine B assay. The format is functional, cell-based.

For the compound `C#CC(=O)N1C(C(C)(C)C)SC[C@@H]1C(=O)OCC` (mixture of isomers), the half-inhibitory concentration (IC50) was found to be 800 nM in experiment [1] and 900 nM in experiment [2].

On to `C#CC(=O)N1C(c2ccc(OC)cc2)SC[C@@H]1C(=O)OCC` (mixture of isomers), for which the concentration for half-maximal inhibition (IC50) in experiment [1] worked out at 1400 nM; in experiment [2], 700 nM.

On to `C#CC(=O)N1C(CC(C)CC(C)(C)C)SC[C@@H]1C(=O)OCC` (mixture of isomers), for which the values for the IC50 in experiment [1] and in experiment [2] were 1600 nM and 1100 nM, respectively.

For the compound `C#CC(=O)N1C(C(CC)CCCC)SC[C@@H]1C(=O)OCC` (mixture of isomers), the IC50 was found to be 1700 nM in experiment [1] and 1600 nM in experiment [2].

With `CC[C@@]1(O)C(=O)OCc2c1cc1n(c2=O)Cc2cc3ccccc3nc2-1` [CAMPTOTHECIN], the half-inhibitory concentration (IC50) in experiment [1] is 100 nM; in experiment [2], less than 1000 nM.

As for `C#CC(=O)N1C(c2cccc(F)c2)SC[C@@H]1C(=O)OCC` (mixture of isomers), the IC50 in experiment [1] was 1400 nM; in experiment [2] it was 1700 nM.

Turning to `O=c1[nH]cc(F)c(=O)[nH]1` [FLUOROURACIL], in experiment [2], the IC50 was determined as 10000 nM.

As to `C#CC(=O)N1C(CCCCC)SC[C@@H]1C(=O)OCC` (mixture of isomers), the IC50 in experiment [1] is 1800 nM; in experiment [2], 2000 nM.

With `C#CC(=O)N1C(C(C)CCC)SC[C@@H]1C(=O)OCC` (mixture of isomers), the 50% inhibitory concentration (IC50) in experiment [1] was 600 nM; in experiment [2], 500 nM.

On to `C#CC(=O)N1C(c2ccc(C#N)cc2)SC[C@@H]1C(=O)OCC` (mixture of isomers), for which the figures for the IC50 in experiment [1] and in experiment [2] were 2600 nM and 2400 nM, respectively.

`C#CC(=O)N1C(c2ccccc2F)SC[C@@H]1C(=O)OCC` (mixture of isomers): the IC50 in experiment [1] and in experiment [2] was 1700 nM each time.

Turning to `C#CC(=O)N1C(CCCC)SC[C@@H]1C(=O)OCC` (mixture of isomers), the half-inhibitory concentration (IC50) came out at 500 nM in experiment [1] and 400 nM in experiment [2].

`C#CC(=O)N1C(c2ccccc2)SC[C@@H]1C(=O)OCC` (some centres not stated): the IC50 in experiment [1] came to 5300 nM; in experiment [2], 400 nM.

Consider `C#CC(=O)N1C(c2ccc(F)cc2)SC[C@@H]1C(=O)OCC` (mixture of isomers), for which the IC50 in experiment [1] amounted to 700 nM; in experiment [2], 400 nM.
